Results reported in patent publication US12624012B2, “14-chloro-β-elemene nitric oxide donor derivative and preparation method and use thereof” (HANGZHOU NORMAL UNIVERSITY, priority 2021, dated 2026).
Read-outs that look alike come from different tables or passages of the source. Values belong to the compound of their own block, whether it stands above or below them.

What was measured:
[1] = test system: human brain glioma U87MG-LUC; test: In vivo anti-tumor activity against malignant brain glioma (in situ U87MG-LUC model); set-up: species or system BABLc/nude mice; conditions: for growth of malignant brain gliomas in mice: after administration for 3 weeks; for brain weight / living and physical conditions of mice / tumor volume / bioluminescence signal intensity of gliomas: versus model group; for bioluminescence signal intensity of gliomas: which increases rapidly
From the text: • Source, germ line, strain: BABLc/nude mice, provided by Shanghai Slaughter Laboratory Animal Co., Ltd., China. • Experimental animal production license: SOCK (Shanghai) 2017-0005 • Certificate of Conformity No.: 20170005040021 • Experimental animal use license: SYXK (Su) 2017-0040 • Age: 4-5 weeks • Sex: female • Number of animals: 5 animals per group, 15 animals in total Experimental Instrument: • Small animal in vivo 3D imaging system Spectrum, PerkinElmer
The cultured human brain glioma U87MG-LUC cell suspension with a concentration of 5×10^7 cells/mL was collected and each animal was inoculated in situ with 20 μL of the cell suspension. 10% chloral hydrate was injected intraperitoneally to anesthetize the mice, and the heads of the mice were fixed with a stereotaxic instrument. The skin of the head was disinfected with an alcohol swab. The skin of the head was cut along the direction of midline of the brain at its slightly right. The right hemisphere was taken as the reference point for fontanelle, 2 mm to the right of the midline, and 1 mm in front as the entry point, and the skull was ground open with a micro-abrasive drill. The cells were fully resuspended with a gun head, a syringe was used to extract the cell suspension. A vertical needle fixed by a stereotaxic instrument was used to feed 3.5 mm and quit 0.5 mm, then stood for 1 min and slowly injected the cells. After injection, the needle was stood for 1 min and slowly withdrawn. Alcohol swabs were used to disinfect the skin, and mice were put back into the feeding cages to wake up naturally after suturing the skin with stitches.
After 14 days of cell inoculation, the animals were randomly grouped, with 5 animals in each group. At the same time, each group of nude mice began to administer drugs. The drug administration protocol is shown in the group and drug administration protocol. At the end of the experiment, the nude mice were executed immediately. The brain tissues were surgically stripped, photographed, and weighed.
Two animals in each group were selected and injected intraperitoneally with Luc bioluminescence signal substrate, 100 μL/each animal, before administration, 1 week, 2 weeks, and 3 weeks after drug administration, respectively. 10 min later, the mice were anesthetized with isoflurane and placed on black box loading platform of an instrument for in vivo imaging detection to observe the bioluminescence signal of in situ tumors in mice's brains.

[2] = test system: SW620; test: In vitro anti-tumor activity evaluation test (CCK-8), SW620; format: cell-based, human; conditions: SW620, 72 h; for IC50: read-out: IC50 against different tumor cell lines
In short: (§1)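 H520 and SW620 seeded at 5.0×10^4 cells/mL, U87MG at 3.5×10^4 cells/mL, grown 24 h, then exposed to drug for 72 h at 37 °C, 5% CO2. Viability by CCK-8 (2-3 h), OD at 450 nm; growth inhibitory rates converted to IC50.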

[3] = In vitro NO release test (incubation with L-cysteine, OD at 550 nm); conditions: 100 μM solution with cysteine solution, 37° C.
In short: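 NO release quantified against a sodium nitrite standard curve from OD at 550 nm after colour development (15 min, 37° C). Samples taken at intervals over 120 min at 37° C from equal volumes of 100 μM compound solution (pre-mixing) and cysteine solution.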

[4] = test system: U87MG; test: In vitro anti-tumor activity evaluation test (CCK-8), U87MG; format: cell-based, human; conditions: U87MG, 72 h; for IC50: read-out: IC50 against different tumor cell lines
In short: as §1

[5] = test system: NCI-H520; test: In vitro anti-tumor activity evaluation test (CCK-8), NCI-H520; format: cell-based, human; conditions: NCI-H520, 72 h; for IC50: read-out: IC50 against different tumor cell lines
In short: as §1

living and physical conditions of mice [1]: much better than the model group
IC50 ([2]; Homo sapiens, SW-620): 0.858 ± 0.033 µM
IC50 ([4]; Homo sapiens, U-87 MG): 0.369 ± 0.013 µM
IC50 ([5]; Homo sapiens): 0.719 ± 0.017 µM
Structure (SMILES): C=C[C@]1(C)CC[C@@H](C(=C)CN(C)CCOC(=O)CCCC(=O)OCC#CCOc2no[n+]([O-])c2S(=O)(=O)c2ccccc2)C[C@H]1C(=C)CCl [Example 4]
growth of malignant brain gliomas in mice [1]: effectively inhibited
blocking of tumor growth ([1]; last week of administration (3 weeks)): > 90%
brain weight [1]: significantly lighter than that of the model group
tumor volume [1]: significantly smaller than that in the model group
bioluminescence signal intensity of gliomas [1]: declines dramatically
inhibition at 1 µM ([2]; Homo sapiens, SW-620, 1 μM, read-out: Inhibitory rates against tumor cell lines): 47.5 ± 3.7%
NO-release concentrations ([3]; 5 min): 12.53 µM
NO-release concentrations ([3]; 10 min): 14.80 µM
NO-release concentrations ([3]; 20 min): 19.55 µM
NO-release concentrations ([3]; 30 min): 23.6 µM
NO-release concentrations ([3]; 60 min): 42.31 µM
NO-release concentrations ([3]; 90 min): 66.97 µM
NO-release concentrations ([3]; 120 min): 93.18 µM
inhibition at 1 µM ([4]; Homo sapiens, U-87 MG, 1 μM, read-out: Inhibitory rates against tumor cell lines): 55.5 ± 1.9%
inhibition at 1 µM ([5]; Homo sapiens, 1 μM, read-out: Inhibitory rates against tumor cell lines): 48.7 ± 2%

living and physical conditions of mice [1]: much better than the model group
IC50 [2]: > 100 µM
IC50 [4]: > 100 µM
IC50 [5]: > 100 µM
Structure (SMILES): C=C[C@]1(C)CC[C@@H](C(=C)C)C[C@H]1C(=C)C [β-elemene]
growth of malignant brain gliomas in mice [1]: effectively inhibited
inhibitory activity (bioluminescence signal of glioma) ([1]; first week of administration): > 20%
brain weight [1]: significantly lighter than that of the model group
tumor volume [1]: significantly smaller than that in the model group
bioluminescence signal intensity of gliomas [1]: declines dramatically
Inhibitory rates against tumor cell lines ([2]; 1 μM): 2.5 ± 4.1%
Inhibitory rates against tumor cell lines ([4]; 1 μM): 4.3 ± 2.2%
Inhibitory rates against tumor cell lines ([5]; 1 μM): 3.2 ± 0.7%
